In ChEMBL document CHEMBL3352741, “Discovery of VU0431316: a negative allosteric modulator of mGlu5 with activity in a mouse model of anxiety” (Bioorg Med Chem Lett, 2014):

Tests used:
[1] = molecular target: Metabotropic glutamate receptor 5 (Rattus norvegicus) (UniProt P31424); assay: Negative allosteric modulator activity at rat mGlu5 expressed in HEK293A cells assessed as reduction in 100 uM glutamate-induced calcium mobilization at 30 uM; type: functional, cell-based; conditions: HEK293-A
[2] = molecular target: Metabotropic glutamate receptor 5 (Rattus norvegicus, UniProt P31424); assay: Negative allosteric modulator activity at rat mGlu5 expressed in HEK293A cells assessed as reduction in glutamate-induced calcium mobilization; type: functional, cell-based, HEK293-A
Chain of Metabotropic glutamate receptor 5 (P31424 whole entry): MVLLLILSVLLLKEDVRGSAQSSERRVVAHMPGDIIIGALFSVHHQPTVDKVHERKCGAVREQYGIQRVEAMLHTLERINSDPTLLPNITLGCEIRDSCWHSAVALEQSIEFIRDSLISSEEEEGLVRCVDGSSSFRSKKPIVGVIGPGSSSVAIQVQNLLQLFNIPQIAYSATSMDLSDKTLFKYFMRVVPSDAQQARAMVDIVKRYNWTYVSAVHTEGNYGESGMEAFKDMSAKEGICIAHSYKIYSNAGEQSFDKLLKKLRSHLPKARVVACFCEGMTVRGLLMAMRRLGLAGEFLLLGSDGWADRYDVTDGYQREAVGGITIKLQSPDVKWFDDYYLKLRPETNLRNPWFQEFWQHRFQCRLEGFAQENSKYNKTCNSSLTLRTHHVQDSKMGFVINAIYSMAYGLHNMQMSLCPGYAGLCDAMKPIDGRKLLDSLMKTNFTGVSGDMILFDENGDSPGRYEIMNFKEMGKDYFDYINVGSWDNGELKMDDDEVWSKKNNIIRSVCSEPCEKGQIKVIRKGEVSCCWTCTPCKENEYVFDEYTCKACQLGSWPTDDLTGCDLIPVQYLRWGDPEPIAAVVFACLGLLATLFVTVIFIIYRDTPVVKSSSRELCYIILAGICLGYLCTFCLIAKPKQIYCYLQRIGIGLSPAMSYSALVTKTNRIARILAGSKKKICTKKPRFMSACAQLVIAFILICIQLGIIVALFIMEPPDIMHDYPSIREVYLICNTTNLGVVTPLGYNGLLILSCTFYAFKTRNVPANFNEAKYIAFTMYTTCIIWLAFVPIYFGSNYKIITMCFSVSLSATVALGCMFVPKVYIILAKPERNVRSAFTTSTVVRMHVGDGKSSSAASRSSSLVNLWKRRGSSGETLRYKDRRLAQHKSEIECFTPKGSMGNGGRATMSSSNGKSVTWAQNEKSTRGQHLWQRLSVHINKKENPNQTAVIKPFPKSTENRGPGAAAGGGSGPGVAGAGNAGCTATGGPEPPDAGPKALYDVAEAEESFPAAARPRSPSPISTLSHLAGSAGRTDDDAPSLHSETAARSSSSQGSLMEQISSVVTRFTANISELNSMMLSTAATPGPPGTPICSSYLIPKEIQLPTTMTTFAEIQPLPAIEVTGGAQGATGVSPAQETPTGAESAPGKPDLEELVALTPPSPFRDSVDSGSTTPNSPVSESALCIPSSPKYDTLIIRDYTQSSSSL

Chain of Metabotropic glutamate receptor 5 (Rattus norvegicus) (P31424 21-1203 limits assumed): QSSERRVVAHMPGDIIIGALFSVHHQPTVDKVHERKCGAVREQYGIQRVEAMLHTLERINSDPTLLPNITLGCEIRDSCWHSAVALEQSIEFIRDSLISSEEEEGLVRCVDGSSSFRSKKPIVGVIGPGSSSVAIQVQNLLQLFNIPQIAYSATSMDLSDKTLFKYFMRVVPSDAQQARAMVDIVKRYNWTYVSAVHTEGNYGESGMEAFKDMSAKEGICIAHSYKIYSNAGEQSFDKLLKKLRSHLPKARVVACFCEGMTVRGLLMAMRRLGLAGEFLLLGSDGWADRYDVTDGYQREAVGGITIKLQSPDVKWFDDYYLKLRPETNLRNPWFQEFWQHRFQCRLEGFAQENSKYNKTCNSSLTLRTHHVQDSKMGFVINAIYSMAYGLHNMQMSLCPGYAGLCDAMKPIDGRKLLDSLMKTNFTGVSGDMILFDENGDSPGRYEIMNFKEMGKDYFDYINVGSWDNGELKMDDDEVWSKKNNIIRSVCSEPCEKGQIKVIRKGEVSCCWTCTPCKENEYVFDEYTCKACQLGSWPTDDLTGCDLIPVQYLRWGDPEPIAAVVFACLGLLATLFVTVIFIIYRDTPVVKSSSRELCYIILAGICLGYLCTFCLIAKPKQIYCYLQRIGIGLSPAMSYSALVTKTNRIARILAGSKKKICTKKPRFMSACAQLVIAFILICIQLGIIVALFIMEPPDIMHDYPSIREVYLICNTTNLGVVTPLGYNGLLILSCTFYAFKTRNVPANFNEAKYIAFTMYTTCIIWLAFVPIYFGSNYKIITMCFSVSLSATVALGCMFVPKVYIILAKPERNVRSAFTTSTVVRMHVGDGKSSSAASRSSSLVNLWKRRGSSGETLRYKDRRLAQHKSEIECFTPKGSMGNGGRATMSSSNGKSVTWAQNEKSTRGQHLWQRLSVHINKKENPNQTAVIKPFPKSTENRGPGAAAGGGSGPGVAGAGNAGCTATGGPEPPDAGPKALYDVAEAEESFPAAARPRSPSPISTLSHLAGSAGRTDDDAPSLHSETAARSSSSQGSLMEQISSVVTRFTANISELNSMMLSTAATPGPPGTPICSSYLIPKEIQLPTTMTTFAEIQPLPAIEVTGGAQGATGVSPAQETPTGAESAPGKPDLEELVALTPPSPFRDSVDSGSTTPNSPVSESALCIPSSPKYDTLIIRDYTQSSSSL

Row | Compound | %max [1] [%] | IC50 [2] [µM]
1 | COc1cccc(C(=O)Nc2cncc(Oc3cncc(F)c3)n2)c1 | -5.6 | –
2 | Cc1cc(C)cc(C(=O)Nc2cncc(Oc3cncc(F)c3)n2)c1 | 6.6 | –
3 | O=C(Nc1cncc(Oc2cncc(F)c2)n1)c1cccnn1 | – | > 30
4 | O=C(Nc1cncc(Oc2cncnc2)n1)c1ccccc1 | 12 | > 10
5 | O=C(Nc1cncc(Oc2cncnc2)n1)c1ccsc1 | 15 | > 10
6 | O=C(Nc1cncc(Oc2cncc(F)c2)n1)c1ccccc1 | -9.4 | –
7 | O=C(Nc1cncc(Oc2cncc(F)c2)n1)c1ccncn1 | – | > 30
8 | Cc1ccc(C(=O)Nc2cncc(Oc3cncnc3)n2)s1 | – | > 30
9 | O=C(Nc1cncc(Oc2cncc(F)c2)n1)c1cccs1 | 7.8 | 6.37
10 | O=C(Nc1cncc(Oc2cncnc2)n1)c1cc(Br)ccn1 | 2.3 | 0.1
11 | O=C(Nc1cncc(Oc2cncc(F)c2)n1)c1cc(Cl)ccc1F | 1 | 0.894
